Laboratory results as given in patent publication US11708348B2, “Protease inhibitors for treatment of coronavirus infections” (The Scripps Research Institute, priority 2021, dated 2023).
Read-outs that look alike come from different tables or passages of the source.

Test system: SARS-CoV-2 strain USA-WA1/2020
Assay: microbe, parasite or virus in culture
Assay type: cell-based
Settings: Severe acute respiratory syndrome coronavirus 2, HeLa-ACE2, 24 h, HeLa-ACE2 cells, SARS-CoV-2 infection, 24 h, read-out: EC50, uM (Hela)

`CC(C)C[C@H](NC(=O)c1cc(-c2ccccc2F)on1)C(=O)N[C@@H](C[C@@H]1CCNC1=O)C(=O)COc1c(F)c(F)cc(F)c1F` [Compound 67, 5-(2-fluorophenyl)-N-((S)-4-methyl-1-oxo-1-(((S)-3-oxo-1-((S)-2-oxopyrrolidin-3-yl)-4-(2,3,5,6-tetrafluorophenoxy)butan-2-yl)amino)pentan-2-yl)isoxazole-3-carboxamide] was tested, and the EC50 (class symbols) was 0.2 to 0.5 µM.

`Cn1ccc(C(=O)N2C[C@@H]3CCC[C@@H]3[C@H]2C(=O)N[C@@H](C[C@@H]2CCNC2=O)C(=O)COC(F)(F)F)n1` [Compound 533, (1S,3aR,6aS)-2-(1-methyl-1H-pyrazole-3-carbonyl)-N-((S)-3-oxo-1-((S)-2-oxopyrrolidin-3-yl)-4-(trifluoromethoxy)butan-2-yl)octahydrocyclo-penta[c]pyrrole-1-carboxamide] showed an EC50 of 0.5 to 1 µM.

With `CC(C)C[C@H](NC(=O)C(=O)Nc1c(F)cccc1F)C(=O)N[C@@H](C[C@@H]1CCNC1=O)C(=O)COc1c(F)c(F)cc(F)c1F` [Compound 47, N1-(2,6-difluorophenyl)-N2-((S)-4-methyl-1-oxo-1-(((S)-3-oxo-1-((S)-2-oxopyrrolidin-3-yl)-4-(2,3,5,6-tetrafluorophenoxy)butan-2-yl)amino)pentan-2-yl)oxalamide] the EC50 (class symbols) was < 0.05 µM.

With `CC(C)(C)[C@H](O)C(=O)N1C[C@H]2[C@@H]([C@H]1C(=O)N[C@@H](C[C@@H]1CCNC1=O)C(=O)COC(F)(F)F)C2(C)C` [Compound 345, (1R,2S,5S)-3-((S)-2-hydroxy-3,3-dimethylbutanoyl)-6,6-dimethyl-N-((S)-3-oxo-1-((S)-2-oxopyrrolidin-3-yl)-4-(trifluoromethoxy)butan-2-yl)-3-azabicyclo-[3.1.0]hexane-2-carboxamide] the EC50 (class symbols) was < 0.05 µM.

For `O=C1NCC[C@H]1C[C@H](NC(=O)[C@@H]1[C@H]2CCC[C@H]2CN1C(=O)c1noc2cc(F)ccc12)C(=O)COC(F)(F)F` [Compound 611, (1S,3aR,6aS)-2-(6-fluorobenzo[d]isoxazole-3-carbonyl)-N-((S)-3-oxo-1-((S)-2-oxopyrrolidin-3-yl)-4-(trifluoromethoxy)butan-2-yl)octahydrocyclopenta[c]pyrrole-1-carboxamide], the EC50 was < 0.05 µM.

In the case of `COc1cccc2[nH]c(C(=O)N[C@@H](CC(C)C)C(=O)N[C@@H](C[C@@H]3CCNC3=O)C(=O)COC(C(F)F)C(F)F)cc12` [Compound 178, 4-methoxy-N-((S)-4-methyl-1-oxo-1-(((S)-3-oxo-1-((S)-2-oxopyrrolidin-3-yl)-4-((1,1,3,3-tetrafluoropropan-2-yl)oxy)butan-2-yl)amino)pentan-2-yl)-1H-indole-2-carboxamide], the EC50 (cells given as a bound) is reported as > 1 µM.

For `CC1(C)[C@@H]2[C@@H](C(=O)N[C@@H](C[C@@H]3CCNC3=O)C(=O)COC(F)(F)F)N(C(=O)[C@H](O)c3ccccc3)C[C@@H]21` [Compound 413, (1R,2S,5S)-3-((R)-2-hydroxy-2-phenylacetyl)-6,6-dimethyl-N-((S)-3-oxo-1-((S)-2-oxopyrrolidin-3-yl)-4-(trifluoromethoxy)butan-2-yl)-3-azabicyclo[3.1.0]-hexane-2-carboxamide], the EC50 was < 0.05 µM.

`CC(C)C[C@H](NC(=O)C(=O)Nc1ccccn1)C(=O)N[C@@H](C[C@@H]1CCNC1=O)C(=O)COc1c(F)c(F)cc(F)c1F` [Compound 45, N1-((S)-4-methyl-1-oxo-1-(((S)-3-oxo-1-((S)-2-oxopyrrolidin-3-yl)-4-(2,3,5,6-tetrafluorophenoxy)butan-2-yl)amino)pentan-2-yl)-N2-(pyridin-2-yl)oxalamide] showed an EC50 (class symbols) of 0.05 to 0.2 µM.

`CN1CCC[C@H]1C(=O)N1C[C@@H]2CCC[C@@H]2[C@H]1C(=O)N[C@@H](C[C@@H]1CCNC1=O)C(=O)COC(F)(F)F` [Compound 440, (1S,3aR,6aS)-2-(methylprolyl)-N-((S)-3-oxo-1-((S)-2-oxopyrrolidin-3-yl)-4-(trifluoromethoxy)butan-2-yl)octahydrocyclo-penta[c]pyrrole-1-carboxamide] gave an EC50 of 0.5 to 1 µM.

`CC(C)C[C@@H](O)C(=O)N1C[C@H](c2ccccc2)C[C@H]1C(=O)N[C@@H](C[C@@H]1CCNC1=O)C(=O)COC(F)(F)F` [Compound 761, (2S,4S)-1-((R)-2-hydroxy-4-methylpentanoyl)-N-((S)-3-oxo-1-((S)-2-oxopyrrolidin-3-yl)-4-(trifluoromethoxy)butan-2-yl)-4-phenylpyrrolidine-2-carboxamide] was tested, and the EC50 was < 0.05 µM.

Compound `CC(C)(C)NC(=O)C(=O)N1[C@H](C(=O)N[C@@H](C[C@@H]2CCNC2=O)C(=O)COC(F)(F)F)C[C@@H]2CCCC[C@@H]21` [Compound 498, (2S,3aS,7aS)-1-(2-(tert-butylamino)-2-oxoacetyl)-N-((S)-3-oxo-1-((S)-2-oxopyrrolidin-3-yl)-4-(trifluoromethoxy)butan-2-yl)octahydro-1H-indole-2-carboxamide] has an EC50 of 0.05 to 0.2 µM.

`CC(C)(NC(=O)C(=O)N1C[C@H]2CCCC[C@H]2C[C@H]1C(=O)N[C@@H](C[C@@H]1CCNC1=O)C(=O)COC(F)(F)F)C(F)(F)F` [Compound 487, (3S,4aS,8aS)-N-((S)-3-oxo-1-((S)-2-oxopyrrolidin-3-yl)-4-(trifluoromethoxy)butan-2-yl)-2-(2-oxo-2-((1,1,1-trifluoro-2-methylpropan-2-yl)amino)acetyl)-decahydroiso-quinoline-3-carboxamide] gave an EC50 of 0.05 to 0.2 µM.

`C[C@H](C[C@@H](O)C(=O)N1CC2(CC2)C[C@H]1C(=O)N[C@@H](C[C@@H]1CCNC1=O)C(=O)COC(F)(F)F)C(F)(F)F` (single isomer, unassigned) [Compound 426] was tested, and the EC50 was < 0.05 µM.

In the case of `CC(C)C[C@H](NC(=O)OC1CCCC1)C(=O)N[C@@H](C[C@@H]1CCNC1=O)C(=O)COc1c(F)c(F)cc(F)c1F` [Compound 21, cyclopentyl ((S)-4-methyl-1-oxo-1-(((S)-3-oxo-1-((S)-2-oxopyrrolidin-3-yl)-4-(2,3,5,6-tetrafluorophenoxy)butan-2-yl)amino)pentan-2-yl)carbamate], the EC50 (cells given as a bound) is reported as > 1 µM.

With `CC(C)(C)c1ccccc1NC(=O)C(=O)N1C[C@@H]2CCC[C@@H]2[C@H]1C(=O)N[C@@H](C[C@@H]1CCNC1=O)C(=O)COC(F)(F)F` [Compound 615, (1S,3aR,6aS)-2-(2-((2-(tert-butyl)phenyl)amino)-2-oxoacetyl)-N-((S)-3-oxo-1-((S)-2-oxopyrrolidin-3-yl)-4-(trifluoromethoxy)butan-2-yl)octahydrocyclopenta[c]pyrrole-1-carboxamide] the EC50 was < 0.05 µM.

`CC[C@@H](OC)C(=O)N1C[C@H]2[C@@H]([C@H]1C(=O)N[C@@H](C[C@@H]1CCNC1=O)C(=O)COC(F)(F)F)C2(C)C` [Compound 336, (1R,2S,5S)-3-((R)-2-methoxybutanoyl)-6,6-dimethyl-N—((S)-3-oxo-1-((S)-2-oxopyrrolidin-3-yl)-4-(trifluoromethoxy)butan-2-yl)-3-azabicyclo[3.1.0]hexane-2-carboxamide] was tested, and the EC50 (class symbols) was 0.05 to 0.2 µM.

`CC(C)C[C@H](NC(=O)c1cc2ccncc2[nH]1)C(=O)N[C@@H](C[C@@H]1CCNC1=O)C(=O)COC(F)(F)F` [Compound 187, N-((S)-4-methyl-1-oxo-1-(((S)-3-oxo-1-((S)-2-oxopyrrolidin-3-yl)-4-(trifluoromethoxy)butan-2-yl)amino)pentan-2-yl)-1H-pyrrolo[2,3-c]pyridine-2-carboxamide] showed an EC50 (class symbols) of 0.05 to 0.2 µM.
